Patent US11447486B2, “2-amino-benzimidazole derivatives and their use as 5-lipoxygenase and/or prostaglandin E synthase inhibitors” (INSTITUT PASTEUR KOREA, priority 2014, dated 2022)

Assays:
human 5-LOX = biological target: T1, human 5-LOX (Homo sapiens, UniProt P09917); experiment: 5-LOX enzyme activity, fluorescence method (5-HPETE, H2DCFDA); assay type: biochemical; conditions: read-out: 5-LO (IC50)
T1 construct: purchased Cayman 60402; host or cells: insect cells (lysate)
T1 sequence (P09917 1-674): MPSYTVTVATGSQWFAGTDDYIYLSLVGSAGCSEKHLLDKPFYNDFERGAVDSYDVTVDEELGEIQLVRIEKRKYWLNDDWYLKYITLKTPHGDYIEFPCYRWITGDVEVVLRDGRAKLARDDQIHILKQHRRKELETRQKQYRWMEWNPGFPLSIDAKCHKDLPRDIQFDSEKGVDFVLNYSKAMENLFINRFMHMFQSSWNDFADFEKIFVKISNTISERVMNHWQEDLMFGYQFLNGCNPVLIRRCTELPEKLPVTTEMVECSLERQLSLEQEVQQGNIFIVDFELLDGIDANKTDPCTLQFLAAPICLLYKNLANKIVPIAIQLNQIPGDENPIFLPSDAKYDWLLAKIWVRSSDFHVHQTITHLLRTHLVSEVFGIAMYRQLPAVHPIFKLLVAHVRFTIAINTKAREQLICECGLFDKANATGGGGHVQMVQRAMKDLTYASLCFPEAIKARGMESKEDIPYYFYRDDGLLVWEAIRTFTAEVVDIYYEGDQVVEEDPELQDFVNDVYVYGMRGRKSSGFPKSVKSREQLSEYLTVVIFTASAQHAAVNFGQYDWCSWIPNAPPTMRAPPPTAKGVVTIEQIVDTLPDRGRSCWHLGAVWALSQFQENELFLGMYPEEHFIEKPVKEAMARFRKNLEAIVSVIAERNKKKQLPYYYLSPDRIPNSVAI
Procedure: The activity of compounds against 5-LOX were determined by measuring LTB4 (leukotriene B4) levels and/or by a fluorescence method. Both approaches are outlined in more detail below;
The compound, in a dose response manner(0.5 nM to 10 uM), and enzyme mixture was pre-incubated for 5 minutes, and the enzymatic reaction was initiated by addition of ATP and arachidonic acid to a final concentration of 100 uM and 3 uM, respectively. […] All steps were carried out at room temperature.

[1] = test system: Rat basophilic leukemia (RBL) cells; experiment: LTB4 secretion assay in RBL (rat basophilic leukemia cells); assay type: cell-based; conditions: Rattus norvegicus, RBL
Procedure: Rat basophilic leukemia (RBL) cells (ATCC, Cat #CRL-2256) were maintained in EMEM (ATCC, Cat #30-2003) supplemented with 15% FBS. The day before RBL assay, cells were seeded at a concentration of 2×10^4 cells per well in 96-well plates. The media was replaced with 100 ul of EMEM supplemented with 0.5% FBS and compounds in dose response(5 nM to 100 uM) were added. After 15 min of pre-incubation at 37° C., arachidonic acid and calcium ionophore (A23187) were added to give a final concentration of 2.5 uM and 5 uM, respectively. After a further 10 min incubation at 37° C., culture supernatant was transferred and quantification of LTB4 was done with a Leukotriene B4 EIA kit (Cayman, Cat #520111) as instructed.

| Structure (SMILES) | IC50 (human 5-LOX) | EC50 [1] |
| --- | --- | --- |
| Cn1c(NCc2ccc(Oc3ncc(OC(F)(F)F)cn3)cc2)nc2ccc(N)cc21 [Compound 410] | < 1000 nM | < 10 µM |
| Cn1c(NCc2ccc3c(ccn3-c3ccc(Cl)cn3)c2)nc2ccc(NC3COC3)cc21 [Compound 457] | < 1000 nM | < 10 µM |
| Cn1c(NCc2ccc(Oc3cn4ccc(Cl)cc4n3)cc2)nc2ccc(NC3COC3)cc21 [Compound 455] | < 1000 nM | < 10 µM |
| Cn1ccnc1CNc1ccc2nc(NCc3ccc(Oc4ncc(Cl)cn4)cc3)n(C)c2c1 [Compound 359] | < 1000 nM | < 10 µM |
| NC(=O)CNc1nc2ccc(N)cc2n1Cc1ccc(Oc2ccc(Cl)cc2)cc1 [Compound 217] | < 1000 nM | < 10 µM |
| CN(C)c1nc2ccc(NC3COC3)cc2n1CCOc1ccc(Cl)cc1 [Compound 40] | < 1000 nM | 10 to 20 µM |
| Nc1nc2ccc(N3CCC(Oc4ccc(OC(F)(F)F)cc4)C3)cc2[nH]1 (stereo not drawn) [Compound 63] | < 1000 nM | 10 to 20 µM |
| Cn1c(NCc2ccc(Oc3ncc(C(F)(F)F)cn3)cc2)nc2c(F)cc(NC3COC3)cc21 [Compound 551] | < 1000 nM | < 10 µM |
| Cn1c(NCc2ccc(Oc3ncc(Cl)cn3)cc2)nc2ccc(NCC(O)c3ccc(F)cc3)cc21 (stereo not drawn) [Compound 372] | < 1000 nM | < 10 µM |
| Cn1c(NCc2ccc(Oc3nccc4cc(Cl)ccc34)cc2)nc2ccc(NC3COC3)cc21 [Compound 439] | < 1000 nM | 10 to 20 µM |
| Fc1ccc(CNc2nc3cc(NCc4cnc[nH]4)ccc3[nH]2)cc1 [Compound 29] | < 1000 nM | < 10 µM |
| Nc1ccc2nc(NCc3ccc(C(O)c4ccccn4)cc3)[nH]c2c1 (stereo not drawn) [Compound 139] | < 1000 nM | > 20 µM |
| Fc1ccc(CCNc2nc3cc(NC4COC4)ccc3[nH]2)cc1 [Compound 33] | < 1000 nM | < 10 µM |
| Nc1ccc2nc(N)n(CCc3ccc(Oc4ccc(Cl)cn4)cc3)c2c1 [Compound 244] | < 1000 nM | < 10 µM |
| COc1cc2[nH]c(NCc3ccc(Oc4ccc(Cl)cc4)cc3)nc2cc1N [Compound 146] | < 1000 nM | 10 to 20 µM |
| Cn1c(NCc2ccc(Oc3ccc4ccc(Cl)cc4n3)cc2)nc2ccc(N)cc21 [Compound 419] | < 1000 nM | < 10 µM |
| Nc1ccc2nc(NCC(=O)O)n(Cc3ccc(Oc4ccc(Cl)cc4)cc3)c2c1 [Compound 225] | < 1000 nM | > 20 µM |
| Nc1ccc2[nH]c(NCc3ccc(N4CCC(Oc5ccc(Cl)cc5)CC4)cc3)nc2c1 [Compound 2] | < 1000 nM | – |
| Cn1c(NCc2ccc(Oc3ncc(Cl)c4ccccc34)cc2)nc2ccc(N)cc21 [Compound 399] | < 1000 nM | < 10 µM |
| COC(=O)c1ccc(CNc2ccc3nc(N(C)C)[nH]c3c2)cc1 [Compound 179] | < 1000 nM | < 10 µM |
| Cn1c(NCc2ccc3c(ccn3-c3ccc(Cl)cn3)c2)nc2ccc(N)cc21 [Compound 451] | < 1000 nM | < 10 µM |
| CC(Cc1ccc(Cl)cc1Cl)Nc1nc2cc(N)ccc2n1Cc1ccccc1 (stereo not drawn) [Compound 144] | < 1000 nM | 10 to 20 µM |
| CCOC(=O)CN(c1ccc(F)cc1)c1ccc(CNc2ccc3nc(N(C)C)[nH]c3c2)cc1 [Compound 185] | < 1000 nM | < 10 µM |
| COC(=O)c1ccc(OC2CCN(c3ccc4[nH]c(N(C)C)nc4c3)C2)cc1 (stereo not drawn) [Compound 194] | < 1000 nM | < 10 µM |
| Cn1c(NCc2ccc(Oc3ncc(Cl)cn3)cn2)nc2ccc(NC3COC3)cc21 [Compound 355] | 1000 to 10000 nM | > 20 µM |
| Nc1ccc2[nH]c(NC(=O)c3ccc(F)cc3)nc2c1 [Compound 26] | 1000 to 10000 nM | > 20 µM |

| Structure (SMILES) | IC50 (human 5-LOX) | EC50 [1] |
| --- | --- | --- |
| Cn1c(NCc2ccc(Oc3ccc(Cl)cn3)c(F)c2)nc2ccc(N)cc21 [Compound 267] | < 1000 nM | < 10 µM |
| Cn1c(NCc2ccc(Oc3ncc(Cl)cn3)cc2)nc2ccc(NC(=N)N)cc21 [Compound 441] | > 10000 nM | > 20 µM |
| Cn1c(N2CCC(Oc3ccc(F)cc3)CC2)nc2cc(N)ccc21 [Compound 35] | 1000 to 10000 nM | > 20 µM |
| Cn1c(N2CCC(C(=O)Nc3ccc(OC(F)(F)F)cc3)C2)nc2ncc(N)cc21 (stereo not drawn) [Compound 76] | < 1000 nM | > 20 µM |
| Cn1c(NCc2ccc(Oc3nccc4cc(Cl)ccc34)cc2)nc2ccc(N)cc21 [Compound 438] | < 1000 nM | 10 to 20 µM |
| Cn1c(NCN2CC(Cc3ccccc3)OC2=O)nc2ccc(N)cc21 (stereo not drawn) [Compound 174] | 1000 to 10000 nM | > 20 µM |
| CN(C)c1nc2cc(NCc3ccc(-c4ncco4)cc3)ccc2[nH]1 [Compound 220] | < 1000 nM | < 10 µM |
| Cn1c(NCc2ccc(Oc3nc4cc(Cl)ccc4o3)cc2)nc2ccc(NC3COC3)cc21 [Compound 403] | < 1000 nM | < 10 µM |
| CC(C)(CO)Nc1nc2ccc(N)cc2n1Cc1ccc(Oc2ccc(Cl)cc2)cc1 [Compound 187] | < 1000 nM | < 10 µM |
| COc1ccc(Oc2ccc(CNc3nc4ccc(N)cc4n3C)cc2)nc1 [Compound 330] | < 1000 nM | < 10 µM |
| CN(C)c1nc2cc(N3CCCC(Oc4ccc(OC(F)(F)F)cc4)C3)ccc2[nH]1 (stereo not drawn) [Compound 183] | < 1000 nM | > 20 µM |
| Nc1ccc2[nH]c(N3CCC(C(=O)Nc4ccc(OC(F)(F)F)cc4)C3)nc2c1 (stereo not drawn) [Compound 64] | < 1000 nM | > 20 µM |
| CN(C)c1nc2cc(NC3COC3)ccc2n1CCOc1ccc(Cl)cc1 [Compound 41] | 1000 to 10000 nM | 10 to 20 µM |
| CCOC(=O)CNc1nc2ccc(N)cc2n1Cc1ccc(Oc2ccc(Cl)cc2)cc1 [Compound 207] | < 1000 nM | < 10 µM |
| Cn1c(NCc2ccc(Oc3ncc(Cl)cn3)cc2)nc2ccc(Nc3n[nH]cc3C(N)=O)cc21 [Compound 488] | 1000 to 10000 nM | > 20 µM |
| FC(F)(F)Oc1ccc(OCCn2c(N3CCCC3)nc3cc(N4CCC4)ccc32)cc1 [Compound 85] | 1000 to 10000 nM | > 20 µM |
| Cn1c(NCCOc2ccc(Cl)c(Cl)c2)nc2ccc(N)cc21 [Compound 60] | < 1000 nM | < 10 µM |
| Cn1c(NCc2ccc(Oc3ccc4cc(Cl)ccc4n3)cc2)nc2ccc(NC3COC3)cc21 [Compound 390] | < 1000 nM | < 10 µM |
| CC(Nc1ccc2[nH]c(N(C)C)nc2c1)c1ccc(Oc2ccc(Cl)cc2)cc1 (stereo not drawn) [Compound 131] | < 1000 nM | < 10 µM |
| CN(C)CCn1c(NCc2ccc(Oc3ccc(Cl)cn3)cc2)nc2ccc(NC3COC3)cc21 [Compound 332] | < 1000 nM | < 10 µM |
| Cn1nc(CF)cc1Nc1ccc2nc(NCc3ccc(Oc4ncc(Cl)cn4)cc3)n(C)c2c1 [Compound 539] | < 1000 nM | < 10 µM |
| CCN(c1ccc2nc(NCc3ccc(Oc4ccc(Cl)cn4)cc3)n(C)c2c1)C1COC1 [Compound 278] | < 1000 nM | < 10 µM |
| Cn1c(NCc2ccc(Oc3ncc4ccc(Cl)cc4n3)cc2)nc2ccc(N)cc21 [Compound 440] | < 1000 nM | < 10 µM |
| O=C(NC1CCCC1)c1c[nH]nc1Nc1ccc2[nH]c(NCc3ccc(Oc4ccc(Cl)cc4)cc3)nc2c1 [Compound 19] | < 1000 nM | – |
| Nc1nc2ccc(Nc3n[nH]cc3C(=O)NC3CCCC3)cc2n1CCOc1ccc(OC(F)(F)F)cc1 [Compound 18] | 1000 to 10000 nM | – |
